This is an account of results in patent US20230265068A1, “TRANSIENT RECEPTOR POTENTIAL CANONICAL 3 INHIBITORS AND METHODS OF USE THEREOF” (University of Tennessee Research Foundation, priority 2020, published 2023).

For orientation: inhibition means the drop in the measured response relative to a control, in per cent. As a reminder, the IC50 is the concentration that inhibits the measured activity by half.

Assay [1] deals with T1, TRPC3 (Homo sapiens, UniProt Q13507).
T1 sequence (Q13507 1-921): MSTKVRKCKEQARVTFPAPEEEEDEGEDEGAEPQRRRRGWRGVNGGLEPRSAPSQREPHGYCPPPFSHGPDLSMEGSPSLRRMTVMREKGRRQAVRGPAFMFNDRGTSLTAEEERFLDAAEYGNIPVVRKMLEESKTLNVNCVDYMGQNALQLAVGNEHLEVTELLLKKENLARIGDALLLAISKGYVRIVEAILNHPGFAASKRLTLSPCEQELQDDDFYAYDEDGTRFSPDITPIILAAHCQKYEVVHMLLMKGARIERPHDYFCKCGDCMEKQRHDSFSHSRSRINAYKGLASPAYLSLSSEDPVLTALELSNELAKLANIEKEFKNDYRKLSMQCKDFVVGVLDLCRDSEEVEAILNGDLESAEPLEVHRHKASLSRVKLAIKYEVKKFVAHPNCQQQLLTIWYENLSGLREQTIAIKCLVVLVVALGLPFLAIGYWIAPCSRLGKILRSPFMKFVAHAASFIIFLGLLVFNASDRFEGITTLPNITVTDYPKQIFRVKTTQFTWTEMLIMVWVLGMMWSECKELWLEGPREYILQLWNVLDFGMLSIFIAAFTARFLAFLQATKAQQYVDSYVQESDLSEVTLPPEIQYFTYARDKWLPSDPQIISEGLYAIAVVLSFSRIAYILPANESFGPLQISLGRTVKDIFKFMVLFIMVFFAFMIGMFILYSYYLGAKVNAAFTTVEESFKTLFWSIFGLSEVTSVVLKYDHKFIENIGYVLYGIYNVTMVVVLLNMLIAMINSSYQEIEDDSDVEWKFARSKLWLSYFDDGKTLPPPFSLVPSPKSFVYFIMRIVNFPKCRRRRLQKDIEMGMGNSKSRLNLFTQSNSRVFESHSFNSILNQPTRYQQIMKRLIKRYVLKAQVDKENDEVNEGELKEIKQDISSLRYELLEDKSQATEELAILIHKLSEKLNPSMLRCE
Particulars: literature ref 21; cited from earlier work.

Assay [2] deals with T1, TRPC3. Briefly: whole-cell patch clamp of HEK293 cells transfected with hTRPC3, currents activated by GSK1702934A. Type of assay: cell-based. The arrangement: expressed in transfected cells; host or cells: HEK293 (CRL-1573), transient transfection, pMO vector. Conditions: for inhibition at 10 µM: 10 μM compound in presence of agonist GSK1702934A, HEK293 whole-cell peak current, read-out: hTRPC3 % Inhibition at 10 μM (mean ± SEM); for IC50: agonist GSK1702934A, HEK293 whole-cell patch clamp, read-out: hTRPC3 IC50 (μM, mean ± SEM). The procedure:
Human embryonic kidney 293 (HEK293; catalog number CRL-1573) cells were cultured in Dulbecco's modified Eagle's medium (Invitrogen) supplemented with 10% fetal bovine serum and 1% penicillin-streptomycin at 37° C. and 5% CO2. Constructs cloned in pMO (a pcDNA3-modified vector) were co-transfected with GFP-pMO, using Lipofectamine 2000 (Invitrogen) according to the manufacturer's instructions. Macroscopic currents in the whole-cell patch clamp configuration were recorded 18-24 h post-transfection. The extracellular solution contained 140 mM NaCl, 6 mM KCl, 2 mM MgCl2, 10 mM HEPES, and 10 mM glucose (pH 7.4). Pipettes were made of borosilicate glass (outer diameter, 1.5 mm; inner diameter, 1.10 mm; Sutter Instruments) and fire-polished with a resistance between 2.8 and 4.0 megaohms when filled with an intracellular solution that contained 140 mM CsCl, 5 mM EGTA, and 10 mM HEPES, pH 7.2. Currents were recorded with a Multiclamp 700B amplifier (Molecular Devices) using a 1-s ramp from −100 to 100 mV. Agonist and antagonists perfused were dissolved in the bath solution prior experiments: TRP channel agonists Allyl isothiocyanate (AITC; TRPA1), capsaicin (TRPV1), and menthol (TRPM8) were obtained from Sigma, GSK1016790A (TRPV4) from Cayman chemicals, and GSK1702934A (TRPC3, TRPC6 and TRPC7) from Tocris Bioscience. Antagonist Pyr3 was obtained from Tocris Bioscience, all other antagonists were synthesized in house. Data were acquired with a sampling rate of 20 kHz, low-pass filtered (10 kHz), and analyzed offline using Clampfit v10.4.2.0 (Molecular Devices).
Electrophysiology results were expressed as means±SD. Data were plotted, and sigmoidal fitting was done using OriginPro (from OriginLab), with the following Boltzmann function:
Using the patch clamp technique in the whole-cell configuration, compounds were screened by challenging hTRPC3 overexpressing HEK293 cells with GSK1702934A to activate TRPC3 and each of the synthesized compounds (10 μM) individually in the presence of the agonist.
To avoid tachyphylaxis and determine the IC50 of compound 22, each point of the dose response curve (FIG. 1B) was done individually on a cell and exchanging coverslips between cells. […] FIGS. 1D-1I show the inhibition of TRPC3-mediated currents by compound 22 and Pyr3 (serving as the reference control). […] Similar results were obtained when OAG was used as the agonist (data not shown).
A general note: The patch-clamp technique gives a direct electrical read-out from membranes.

`O=C(Nc1ccc(-n2ncc(C(=O)O)c2C(F)(F)F)cc1)C(Cl)=C(Cl)Cl` [Pyr8]: the TRPC3 inhibition result on TRPC3 [1] is listed as “little TRPC3 inhibition”.

`CC(=O)c1cnn(-c2ccc(-n3ccc(Cl)c(Cl)c3=O)cc2)c1C(F)(F)F` [Compound 67, 1-(4-(4-acetyl-5-(trifluoromethyl)-1H-pyrazol-1-yl)phenyl)-3,4-dichloropyridin-2(1H)-one]: at TRPC3 [2], the inhibition at 10 µM came out at 88.7 ± 2.83%. As for `CCNC(=O)c1cnn(-c2ccc(-n3ccc(O)c(Cl)c3=O)cc2)c1C(F)(F)F` [Compound 32, 1-(4-(3-chloro-4-hydroxy-2-oxopyridin-1(2H)-yl)phenyl)-N-ethyl-5-(trifluoromethyl)-1H-pyrazole-4-carboxamide], on TRPC3 [2], the inhibition at 10 µM turned out to be 96 ± 1.37% and the IC50 is 0.35 ± 0.09 µM. In the case of `CCNC(=O)c1cnn(-c2ccc(-n3cc(Br)c(Cl)c(Br)c3=O)cc2)c1C(F)(F)F` [Compound 34], the inhibition at 10 µM on TRPC3 [2] was 34 ± 6.52%.

In the case of `CCNC(=O)c1nnn(-c2ccc(-n3ccc(Cl)c(Cl)c3=O)cc2)c1C(F)(F)F` [Compound 61, 1-(4-(3,4-dichloro-2-oxopyridin-1(2H)-yl)phenyl)-N-ethyl-5-(trifluoromethyl)-1H-1,2,3-triazole-4-carboxamide], on TRPC3 [2], the inhibition at 10 µM stood at 47.1 ± 8.29%.

Take `NC(=O)c1cnn(-c2ccc(-n3ccc(Cl)c(Cl)c3=O)cc2)c1C(F)(F)F` [Compound 37, 1-(4-(3,4-dichloro-2-oxopyridin-1(2H)-yl)phenyl)-5-(trifluoromethyl)-1H-pyrazole-4-carboxamide]: the inhibition at 10 µM on TRPC3 [2] worked out at 40.2 ± 10.3%. For the compound `CCCC(=O)c1cnn(-c2ccc(-n3ccc(Cl)c(Cl)c3=O)cc2)c1C(F)(F)F` [Compound 69, 1-(4-(4-butyryl-5-(trifluoromethyl)-1H-pyrazol-1-yl)phenyl)-3,4-dichloropyridin-2(1H)-one], the inhibition at 10 µM at TRPC3 [2] was 63.4 ± 4.83%. Take `CCOC(=O)c1cnn(-c2ccc(-n3ccccc3=O)cc2)c1C(F)(F)F` [Compound 1, Ethyl 1-(4-(2-oxopyridin-1(2H)-yl)phenyl)-5-(trifluoromethyl)-1H-pyrazole-4-carboxylate]: at TRPC3 [2], the inhibition at 10 µM worked out at 49.5 ± 3.91%. As for `CCNC(=O)c1cnn(-c2ccc(-n3ccc(Cl)c(Cl)c3=O)cc2)c1` [Compound 50, 1-(4-(3,4-dichloro-2-oxopyridin-1(2H)-yl)phenyl)-N-ethyl-1H-pyrazole-4-carboxamide], at TRPC3 [2], the inhibition at 10 µM came to 98.08 ± 0.85% and the half-inhibitory concentration (IC50) amounted to 2.56 ± 0.52 µM. Turning to `CCOC(=O)c1cnn(-c2ccc(-n3ccc(Cl)c(Cl)c3=O)cc2)c1C(F)(F)F` [Compound 4, Ethyl 1-(4-(3,4-dichloro-2-oxopyridin-1(2H)-yl)phenyl)-5-(trifluoromethyl)-1H-pyrazole-4-carboxylate], the inhibition at 10 µM at TRPC3 [2] came to 51.4 ± 4.35%. Take `CCNS(=O)(=O)c1cnn(-c2ccc(-n3ccc(Cl)c(Cl)c3=O)cc2)c1C(F)(F)F` [Compound 48, 1-(4-(3,4-dichloro-2-oxopyridin-1(2H)-yl)phenyl)-N-ethyl-5-(trifluoromethyl)-1H-pyrazole-4-sulfonamide]: the inhibition at 10 µM at TRPC3 [2] turned out to be 67.8 ± 1.75%. Take `CCNC(=O)c1sc(-c2ccc(-n3ccc(Cl)c(Cl)c3=O)cc2)nc1C(F)(F)F` [Compound 65, 2-(4-(3,4-dichloro-2-oxopyridin-1(2H)-yl)phenyl)-N-ethyl-4-(trifluoromethyl)thiazole-5-carboxamide]: the inhibition at 10 µM on TRPC3 [2] was 54.9 ± 4.61%. In the case of `CCNC(=O)c1cnn(-c2ccc(-n3cc(Cl)c(Cl)c(Cl)c3=O)cc2)c1C(F)(F)F` [Compound 33], the inhibition at 10 µM on TRPC3 [2] is 45.2 ± 3.59%.

Take `CCOC(=O)c1cnn(-c2ccc(-n3cc(Cl)cc(Cl)c3=O)cc2)c1C(F)(F)F` [Compound 6, Ethyl 1-(4-(3,5-dichloro-2-oxopyridin-1(2H)-yl)phenyl)-5-(trifluoromethyl)-1H-pyrazole-4-carboxylate]: the inhibition at 10 µM on TRPC3 [2] amounted to 50.5 ± 5.49%. In the case of `CCNC(=O)c1cnn(-c2ccc(-n3cc(Cl)c(Cl)cc3=O)cc2)c1C(F)(F)F` [Compound 23], the inhibition at 10 µM at TRPC3 [2] was 51.5 ± 6%. With `CCCNC(=O)c1cnn(-c2ccc(-n3ccc(Cl)c(Cl)c3=O)cc2)c1C(F)(F)F` [Compound 39, 1-(4-(3,4-dichloro-2-oxopyridin-1(2H)-yl)phenyl)-N-propyl-5-(trifluoromethyl)-1H-pyrazole-4-carboxamide], the inhibition at 10 µM on TRPC3 [2] is 71.5 ± 4.51%. As for `CCNC(=O)c1cnn(-c2ccc(-n3ccc(Cl)c(Cl)c3=O)cc2)c1C#N` [Compound 52, 5-cyano-1-(4-(3,4-dichloro-2-oxopyridin-1(2H)-yl)phenyl)-N-ethyl-1H-pyrazole-4-carboxamide], at TRPC3 [2], the inhibition at 10 µM was found to be 88.8 ± 6.37%. With `CCNC(=O)c1cnn(-c2ccc(-n3ccc(Cl)c(F)c3=O)cc2)c1C(F)(F)F` [Compound 24], the inhibition at 10 µM on TRPC3 [2] turned out to be 55.5 ± 7.07%. As for `CC(=O)c1cnn(-c2ccc(-n3ccc(C)c(Cl)c3=O)cc2)c1C(F)(F)F` [Compound 71, 1-(4-(4-acetyl-5-(trifluoromethyl)-1H-pyrazol-1-yl)phenyl)-3-chloro-4-methylpyridin-2(1H)-one], at TRPC3 [2], the inhibition at 10 µM was 57.8 ± 8.74%. In the case of `CCN(CC)C(=O)c1cnn(-c2ccc(-n3ccc(Cl)c(Cl)c3=O)cc2)c1C(F)(F)F` [Compound 43, 1-(4-(3,4-dichloro-2-oxopyridin-1(2H)-yl)phenyl)-N,N-diethyl-5-(trifluoromethyl)-1H-pyrazole-4-carboxamide], at TRPC3 [2], the inhibition at 10 µM is 94.8 ± 2.75% and the half-inhibitory concentration (IC50) turned out to be 4.32 ± 0.98 µM. Turning to `CS(=O)(=O)c1cnn(-c2ccc(-n3ccc(Cl)c(Cl)c3=O)cc2)c1C(F)(F)F` [Compound 73, 3,4-Dichloro-1-(4-(4-(methylsulfonyl)-5-(trifluoromethyl)-1H-pyrazol-1-yl)phenyl)pyridine-2(1H)-one], on TRPC3 [2], the inhibition at 10 µM worked out at 72.7 ± 7.96%.

In the case of `CCOC(=O)c1cnn(-c2ccc(-n3ccc(Cl)cc3=O)cc2)c1C(F)(F)F` [Compound 2, Ethyl 1-(4-(4-chloro-2-oxopyridin-1(2H)-yl)phenyl)-5-(trifluoromethyl)-1H-pyrazole-4-carboxylate], the inhibition at 10 µM on TRPC3 [2] amounted to 71.1 ± 2.66%.
